Laboratory results published in PubChem BioAssay (NCI).
“And” between values parts separate entries of the source, which are not always exact repeats. Equal values may be shown once.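 Compound exposure: 48 hours, 5 concentrations, 96-well plates. GI50 marks 50% less growth. Definition used: TGI = concentration required for complete inhibition of growth.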

What was measured:
Assay in all cases: inhibition of tumour cell growth, NCI panel, 48 h
PC-3 prostate = test system: PC-3 prostate
M14 melanoma = test system: M14 melanoma
HOP-62 NSCLC = test system: HOP-62 NSCLC
SNB-75 CNS = test system: SNB-75 CNS
U251 CNS = test system: U251 CNS
SN12C renal = test system: SN12C renal
UACC-257 melanoma = test system: UACC-257 melanoma
MDA-MB-231 breast = test system: MDA-MB-231 breast
SK-MEL-2 melanoma = test system: SK-MEL-2 melanoma
MDA-MB-435 = test system: MDA-MB-435

Structure (SMILES) | GI50 (PC-3 prostate) | TGI (PC-3 prostate) | GI50 (M14 melanoma) | TGI (M14 melanoma) | GI50 (HOP-62 NSCLC) | TGI (HOP-62 NSCLC) | GI50 (SNB-75 CNS) | TGI (SNB-75 CNS) | GI50 (U251 CNS) | TGI (U251 CNS) | GI50 (SN12C renal) | TGI (SN12C renal) | GI50 (UACC-257 melanoma) | TGI (UACC-257 melanoma) | GI50 (MDA-MB-231 breast) | TGI (MDA-MB-231 breast) | GI50 (SK-MEL-2 melanoma) | TGI (SK-MEL-2 melanoma) | GI50 (MDA-MB-435) | TGI (MDA-MB-435)
Oc1ccccc1C=Nc1ccccc1N=Cc1ccccc1O.[Cu+2] | 3.49 µM | 16.2 µM | 4.33 µM | 16.4 µM | 2.99 µM | 11.7 µM | 5.15 µM | 19.3 µM | 3.4 µM | 14 µM | 4.84 µM | 18.7 µM | 4.08 µM | 15.6 µM | 6.08 µM | 21.2 µM | 5.81 µM | 19.5 µM | 4.38 µM | 17 µM
COc1ccc(-c2nc(-c3nc4ccc(C(F)(F)F)cc4[nH]3)c3ccccn23)cc1 | 4.73 µM | > 100 µM | 83.1 µM | > 100 µM | 38 µM | > 100 µM | 48.1 µM | > 100 µM | > 100 µM | > 100 µM | > 100 µM | > 100 µM | > 100 µM | > 100 µM | 50.6 µM | > 100 µM | > 100 µM | > 100 µM | 47 µM | > 100 µM
CC1(C)CC(=O)c2c(ccc(C(=O)C[C@@H](N)CO)c2N)O1 | 2.1 µM | > 100 µM | 0.664 µM | 8.41 µM | 0.643 µM | > 49.1 µM | 17.7 µM | > 100 µM | 0.328 µM | > 100 µM | 0.788 µM | > 100 µM | 3.25 µM | 47.8 µM | 3.13 µM | > 100 µM | 1.04 µM | 9.33 µM | 2.39 µM | > 100 µM
CC(=O)/C(=C\c1c(-c2ccccc2)[nH]c2ccccc12)S(=O)(=O)c1ccccc1 | 2.44 µM | 15 µM | 0.513 µM | 2.15 µM | 1.18 µM | 3.03 µM | 1.59 µM | 14.6 µM | 1.2 µM | 3.62 µM | 1.82 µM | 9.59 µM | 2.23 µM | 8.58 µM | 1.74 µM | 19.2 µM | 1.39 µM | 5.3 µM | 0.295 µM | 4.14 µM
C#C/C=C/CC1OC(C(Br)CC)CC(Br)C2CC1O2 (centres undefined) |  | > 100 µM |  | > 100 µM |  | > 100 µM |  | > 100 µM |  | > 100 µM |  | > 100 µM |  | > 100 µM |  | > 100 µM |  | > 100 µM |  | > 100 µM
Oc1c(CNCCNCc2cc(Cl)cc(Cc3ccccc3)c2O)cc(Cl)cc1Cc1ccccc1 | 0.62 µM | > 100 µM | 0.316 µM | 10.7 µM | 0.307 µM | 47.3 µM | 1.65 µM | 50.2 µM | 0.297 µM | 14.4 µM | 0.483 µM | 19.4 µM | 2.12 µM | 16.6 µM | 0.73 µM | 25 µM | 1.82 µM | 23.9 µM | 0.435 µM | 13.2 µM
CNCCCn1c2c(c3ccc(F)cc3c1=O)C(=O)c1cc(OC)cnc1-2 | 0.37 µM | 8.1 µM | 0.308 µM | 1.63 µM | 0.142 µM | 0.42 µM | 0.252 µM | 3.28 µM | 0.11 µM | 0.46 µM | 0.211 µM | 1.34 µM | 0.485 µM | 1.9 µM | 0.7 µM | 2.38 µM | 1.6 µM | 7.37 µM | 0.471 µM | 1.81 µM
O=C(c1ccccc1O)c1[nH]c(Cl)c(Cl)c1-n1c(C(=O)c2ccccc2O)cc(Cl)c1Cl | 0.411 µM and 0.276 µM | 9.21 µM and 2.37 µM | 1.46 µM and 1.44 µM | 5.9 µM and 7.76 µM | 2.14 µM and 3.49 µM | 6.49 µM and 17.2 µM | 1.8 µM and 1.58 µM | 10.3 µM and 8.76 µM | 1.29 µM and 1.42 µM | 12.3 µM and 13.6 µM | 0.399 µM and 0.368 µM | 11.9 µM and 11 µM | 1.58 µM and 1.99 µM | 5.88 µM and 9.95 µM | 1.07 µM and 0.354 µM | 5.87 µM and 2.61 µM | 0.335 µM and 1.13 µM | 1.41 µM and 5.68 µM | 1.87 µM and 1.51 µM | 10.6 µM and 10.4 µM
CC1(C)N=C(N)N=C(N)N1c1ccc(Cl)c(Cl)c1 | 0.157 µM | > 100 µM | 0.441 µM | > 100 µM | 0.533 µM | > 100 µM | 18.7 µM | > 81.3 µM | 0.0887 µM | > 100 µM | 0.694 µM | > 100 µM | > 41.6 µM | > 100 µM | > 100 µM | > 100 µM | > 100 µM | > 100 µM | 0.0644 µM | > 100 µM
COc1cc(C2C3=C(COC3=O)Nc3cc4c(cc32)OCO4)cc2c1OCO2 (centres undefined) | 0.0629 µM | > 100 µM | 0.03 µM | 0.0878 µM | 0.0762 µM | > 87.2 µM | 0.0337 µM | 2.75 µM | 0.111 µM | > 100 µM | 0.154 µM | > 100 µM |  | > 100 µM | 0.128 µM | > 100 µM | 0.113 µM | > 26 µM | 0.0238 µM | 0.0664 µM
CC/C=C\C[C@H](O)C/C=C1/C(=O)C=C[C@@H]1C/C=C\CCCC(=O)NC | 1.95 µM | 4.79 µM | 1.76 µM | 4.75 µM | 2.3 µM | 5.33 µM | 10.8 µM | 22.7 µM | 1.3 µM | 4.26 µM | 2.33 µM | 8.5 µM | 2.08 µM | 5.32 µM | 4.24 µM | 14.1 µM | 2.24 µM | 6.35 µM | 1.73 µM | 6.64 µM
N=C(N)SCc1ccc([N+](=O)[O-])cc1[N+](=O)[O-] | 13.4 µM | 87.2 µM | 12.8 µM | 29.4 µM | 33.9 µM | 79.1 µM | 19.6 µM | 50.5 µM | 19.2 µM | > 100 µM | 12.1 µM | 27.2 µM | 4.44 µM | 17 µM | 12 µM | 36.6 µM | 4.5 µM | 16.6 µM | 11.8 µM | 29.3 µM
CN(C)CCOc1ccc(-c2cc(-c3ccc4c(c3)CC/C4=N\O)c(-c3ccncc3)o2)cc1 | 4.16 µM | 8.22 µM | 0.0653 µM | 3.39 µM | 3.84 µM | 7.92 µM | 1.27 µM | 6 µM | 2.41 µM | 5.55 µM | 3.96 µM | 7.73 µM | 0.0945 µM | 1.87 µM | 3.34 µM | 7.19 µM | 0.281 µM | 3.54 µM | 0.156 µM | 4.39 µM
